Each structure is given as a SMILES string.

Broadly, the IC50 is the midpoint of a concentration-inhibition curve.

The target in the experiment is PAS domain-containing serine/threonine-protein kinase (Homo sapiens, UniProt Q96RG2). Nature of the experiment: Inhibition of human recombinant PASK using Ulight-peptide substrate incubated for 2 hrs by TR-FRET assay. In general terms: In TR-FRET formats the signal depends on donor and acceptor labels being close together.
Chain of PAS domain-containing serine/threonine-protein kinase (Q96RG2 whole entry, the tested form may be a part): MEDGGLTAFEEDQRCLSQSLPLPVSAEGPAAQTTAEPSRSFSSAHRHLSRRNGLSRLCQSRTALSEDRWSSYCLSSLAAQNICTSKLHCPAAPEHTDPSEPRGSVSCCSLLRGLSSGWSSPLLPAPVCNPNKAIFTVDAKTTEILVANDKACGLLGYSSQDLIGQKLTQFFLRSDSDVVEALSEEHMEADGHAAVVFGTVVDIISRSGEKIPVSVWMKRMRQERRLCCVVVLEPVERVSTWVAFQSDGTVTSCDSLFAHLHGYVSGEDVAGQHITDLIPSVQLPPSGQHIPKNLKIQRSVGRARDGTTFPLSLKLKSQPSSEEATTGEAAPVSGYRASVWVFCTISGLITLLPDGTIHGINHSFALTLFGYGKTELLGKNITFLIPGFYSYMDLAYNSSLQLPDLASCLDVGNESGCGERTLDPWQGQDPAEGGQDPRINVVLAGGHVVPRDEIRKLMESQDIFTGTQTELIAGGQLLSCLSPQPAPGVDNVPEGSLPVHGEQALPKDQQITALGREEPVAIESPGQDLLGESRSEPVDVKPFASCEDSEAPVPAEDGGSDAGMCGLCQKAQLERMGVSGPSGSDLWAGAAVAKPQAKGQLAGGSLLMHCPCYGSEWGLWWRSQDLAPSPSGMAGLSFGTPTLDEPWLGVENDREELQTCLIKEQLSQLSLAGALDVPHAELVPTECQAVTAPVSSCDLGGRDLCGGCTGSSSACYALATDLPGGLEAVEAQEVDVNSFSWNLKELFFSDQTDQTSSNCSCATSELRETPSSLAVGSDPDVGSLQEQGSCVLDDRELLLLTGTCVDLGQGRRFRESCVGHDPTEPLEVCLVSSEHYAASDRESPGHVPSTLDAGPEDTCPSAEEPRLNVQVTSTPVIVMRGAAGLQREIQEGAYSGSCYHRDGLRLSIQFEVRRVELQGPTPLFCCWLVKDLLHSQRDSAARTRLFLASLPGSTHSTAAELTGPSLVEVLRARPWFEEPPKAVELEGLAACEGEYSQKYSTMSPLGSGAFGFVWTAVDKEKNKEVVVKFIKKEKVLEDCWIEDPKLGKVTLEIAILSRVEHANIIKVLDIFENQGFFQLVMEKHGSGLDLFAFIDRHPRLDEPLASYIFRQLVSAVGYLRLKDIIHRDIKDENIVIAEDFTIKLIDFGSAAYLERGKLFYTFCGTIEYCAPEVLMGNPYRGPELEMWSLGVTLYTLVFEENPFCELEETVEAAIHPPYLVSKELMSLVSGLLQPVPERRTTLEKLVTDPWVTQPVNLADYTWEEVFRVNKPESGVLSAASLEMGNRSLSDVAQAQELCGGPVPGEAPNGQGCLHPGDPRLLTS

Turning to `O=c1cc(-c2ccc3c(c2)OCCO3)[nH]c2c(-c3cccnc3)c(O)nn12`, the IC50 is not above 10 µM. On to `O=c1cc(-c2ccccc2)[nH]c2c(-c3cccnc3)c(O)nn12`, for which the half-maximal inhibitory concentration (IC50) is not above 10 µM.

As for `Nc1nn2c(=O)cc(-c3ccc4occc4c3)[nH]c2c1-c1ccccn1`, the IC50 is not above 10 µM. For `Cc1nn2c(=O)cc(-c3ccc(O)cc3)[nH]c2c1-c1ccccc1`, the IC50 was not above 10 µM.

For the molecule `O=c1cc(-c2ccc3c(c2)OCCO3)[nH]c2c(-c3ccc(Br)cc3)cnn12`, the half-inhibitory concentration (IC50) was not above 10 µM. Take `COc1ccc(-c2c(C)nn3c(=O)cc(-c4ccc5c(c4)OCCO5)[nH]c23)cc1`: the half-maximal inhibitory concentration (IC50) was not above 10 µM. The figure for `O=c1cc(-c2ccc3c(c2)OCCO3)[nH]c2c(-c3ccc(F)cc3)cnn12` is not above 10 µM; for `COc1nn2c(=O)cc(-c3ccc4c(c3)OCO4)[nH]c2c1-c1ccccn1` it is not above 10 µM. Regarding `O=C(O)c1cnn2c(=O)cc(-c3ccc4c(c3)OCCO4)[nH]c12`, the IC50 is not above 10 µM. Consider `CCCc1cnn2c(=O)cc(-c3ccc4c(c3)OCO4)[nH]c12`, for which the IC50 was not above 10 µM.

As for `COc1ccc(-c2c(C)nn3c(=O)cc(-c4ccc5ncccc5c4)[nH]c23)cc1`, the IC50 is not above 10 µM.

Regarding `COc1ccc(-c2cnn3c(=O)cc(-c4ccc5c(c4)OCCO5)[nH]c23)cc1`, the IC50 was not above 10 µM. For `O=c1cc(-c2ccc3c(c2)OCCO3)[nH]c2c(-c3ccc(N4CCOCC4)nc3)cnn12` the value was not above 10 µM; for `Nc1nn2c(=O)cc(-c3cc4ccccc4o3)[nH]c2c1-c1ccccn1`, not above 10 µM.

As to `O=C(c1cnn2c(=O)cc(-c3ccc4c(c3)OCCO4)[nH]c12)N1CCCC1`, the IC50 is not above 10 µM.

Turning to `Cc1cc2cc(-c3cc(=O)n4ncc(-c5ccccn5)c4[nH]3)ccc2o1`, the IC50 was not above 10 µM.

For `O=c1cc(-c2ccc(Cl)cc2)[nH]c2c(Cc3ccccc3)cnn12`, the IC50 was not above 10 µM. For `Cc1ccc(-c2cc(=O)n3ncc(-c4ccccn4)c3[nH]2)cc1` the value was not above 10 µM; for `Nc1nn2c(=O)cc(-c3ccc(Cl)c(Cl)c3)[nH]c2c1-c1ccccn1`, not above 10 µM; for `N#Cc1c(O)nn2c(=O)cc(-c3ccc(Cl)cc3)[nH]c12`, not above 10 µM. For `O=c1cc(-c2ccc(Cl)cc2Cl)[nH]c2c(-c3ccccn3)cnn12` the value was not above 10 µM; for `COc1nn2c(=O)cc(-c3ccc(Cl)cc3)[nH]c2c1C#N`, not above 10 µM; for `O=c1cc(-c2ccc(C(F)(F)F)cc2)[nH]c2c(-c3ccccn3)cnn12`, not above 10 µM.

As for `Cc1nn2c(=O)cc(-c3ccc4ncccc4c3)[nH]c2c1-c1ccc(F)cc1`, the IC50 is not above 10 µM. As to `Cc1cc2cc(-c3cc(=O)n4nc(N)c(-c5ccccn5)c4[nH]3)ccc2o1`, the IC50 is not above 10 µM. For `O=c1cc(-c2ccccc2)[nH]c2c(-c3ccc(O)nc3)cnn12` the value was not above 10 µM. For the molecule `COc1cc(Cl)ccc1-c1cc(=O)n2ncc(-c3ccccn3)c2[nH]1`, the IC50 was not above 10 µM. The figure for `O=c1cc(-c2ccc3c(c2)OCCO3)[nH]c2c(-c3cccc(Cl)c3)cnn12` is not above 10 µM; for `CS(=O)(=O)c1ccc(-c2cc(=O)n3ncc(-c4ccccn4)c3[nH]2)cc1` it is not above 10 µM. The figure for `Nc1nn2c(=O)cc(-c3cccc(F)c3)[nH]c2c1-c1ccccn1` is not above 10 µM. Consider `Nc1nn2c(=O)cc(-c3ccc(C(F)(F)F)cc3)[nH]c2c1-c1ccccn1`, for which the IC50 is not above 10 µM. Consider `COc1cc(OC)cc(-c2cc(=O)n3ncc(-c4ccccn4)c3[nH]2)c1`, for which the half-inhibitory concentration (IC50) was not above 10 µM. For `Cc1coc2ccc(-c3cc(=O)n4nc(N)c(-c5ccccn5)c4[nH]3)cc12` the value was not above 10 µM; for `Cc1nn2c(=O)cc(-c3ccc4[nH]ccc4c3)[nH]c2c1-c1ccccc1`, not above 10 µM; for `COc1ccc(-c2cnn3c(=O)cc(-c4ccccc4)[nH]c23)cn1`, not above 10 µM. For `O=c1cc(-c2ccccc2)[nH]c2c(-c3ccc(N4CCCCC4)nc3)cnn12` the value was not below 10 µM; for `O=c1cc(-c2ccc(Cl)cc2F)[nH]c2c(-c3ccccn3)cnn12`, not above 10 µM.

The record behind these values is ChEMBL document CHEMBL3714729, “Heterocyclic compounds for the inhibition of pask” (2012).
